From article PMC10010643 (Cancer Chemotherapy and Pharmacology, 2023)
Where “and” joins values, the source holds several entries; their conditions need not be identical. Identical values can stand only once. Entries after “also recorded” stand apart in the source; their conditions may differ.

Assay: Safety and tolerability, Part A single ascending-dose phase in healthy participants
Format: in vivo, human
Protocol: A further two cohorts were recruited. […] Each individual participated in one treatment period only, with the exception of the food-effect cohort (cohort A3) in which there were two treatment periods separated by at least 7 days washout. Participants resided at the Clinical Research Unit (CRU) from 1 day ahead of dosing (day − 1) to day 3 and returned for a follow-up visit 5–7 days after their final dose. For all cohorts, doses were administered in the fasted state in the morning of day 1 of Treatment Period 1. In the food-effect cohort, doses were given 30 min after the start of a high-fat breakfast (973 calories total: approximately 150 protein calories, 250 carbohydrate calories, and 500–600 fat calories) on day 1 of Treatment Period 2. For cohorts A1 to A5 in Treatment Period 1, dosing occurred such that one pair (one active and one placebo) were dosed at least 24 h before the remaining participants. Continuation to dose those who remained was at the investigator’s discretion. Escalating doses were administered following satisfactory sponsor and investigator review of the safety and tolerability data (up to 48 h post-final dose) and PK data (up to 24 h post-final dose) from the lower dose levels.
Safety and tolerability assessments included adverse event (AE) monitoring, physical examinations, laboratory assessments (hematology, clinical chemistry, and urinalysis), vital signs (blood pressure, pulse rate, and body temperature) and ECG.
No formal statistical assessment was performed for the safety analysis.

[1] = single and multiple doses, Parts A and B
[2] = single dose 5 mg (1 × 5 mg), fasted
[3] = single dose 20 mg (4 × 5 mg), fasted
[4] = single dose 50 mg (1 × 50 mg), fasted
[5] = single dose 50 mg (1 × 50 mg), fed
[6] = single dose 50 mg (10 × 5 mg), fasted
[7] = single dose 100 mg (2 × 50 mg), fasted
[8] = single dose 200 mg (4 × 50 mg), fasted
[9] = single dose 400 mg (8 × 50 mg), fasted
[10] = treatment-emergent period, Parts A and B

## OC[C@H]1O[C@H](Sc2cncc(Br)c2)[C@H](O)[C@@H](n2cc(-c3cc(F)c(F)c(F)c3)nn2)[C@H]1O [GB1211]
Part A 100 mg, fasted
  TEAE Pain, participants: 0 n (%)
  TEAE Rash, participants: 0 n (%)
  TEAE Respiratory, thoracic and mediastinal disorders, participants: 0 n (%)
  TEAE Skin and subcutaneous tissue disorders, participants: 0 n (%)
  TEAE Wound, participants: 0 n (%)
Part A 200 mg, fasted
  TEAE Back pain, participants: 0 n (%)
  TEAE Constipation, participants: 0 n (%)
  TEAE Cough, participants: 0 n (%)
  TEAE Decreased appetite, participants: 0 n (%)
  TEAE Diarrhea, participants: 0 n (%)
  TEAE Dry mouth, participants: 0 n (%)
  TEAE Dry skin, participants: 0 n (%)
  TEAE Dyspepsia, participants: 0 n (%)
  TEAE Gastrointestinal disorders, participants: 0 n (%)
  TEAE General disorders and administration site conditions, participants: 0 n (%)
  TEAE Headache, participants: 0 n (%)
  TEAE Infections and infestations, participants: 0 n (%)
  TEAE Injury, poisoning and procedural complications, participants: 0 n (%)
  TEAE Medical device site reaction, participants: 0 n (%)
  TEAE Metabolism and nutrition disorders, participants: 0 n (%)
  TEAE Musculoskeletal and connective tissue disorders, participants: 0 n (%)
  TEAE Nasopharyngitis, participants: 0 n (%)
  TEAE Nervous system disorders, participants: 0 n (%)
  TEAE Pain, participants: 0 n (%)
  TEAE Rash, participants: 0 n (%)
  TEAE Respiratory, thoracic and mediastinal disorders, participants: 0 n (%)
  TEAE Skin and subcutaneous tissue disorders, participants: 0 n (%)
  TEAE Wound, participants: 0 n (%)
Part A 400 mg, fasted
  TEAE Back pain, participants: 0 n (%)
  TEAE Constipation, participants: 0 n (%)
  TEAE Cough, participants: 0 n (%)
  TEAE Decreased appetite, participants: 0 n (%)
  TEAE Diarrhea, participants: 0 n (%)
  TEAE Dry mouth, participants: 0 n (%)
  TEAE Dry skin, participants: 0 n (%)
  TEAE Dyspepsia, participants: 0 n (%)
  TEAE Gastrointestinal disorders, participants: 0 n (%)
  TEAE General disorders and administration site conditions, participants: 0 n (%)
  TEAE Headache, participants: 0 n (%)
  TEAE Infections and infestations, participants: 0 n (%)
  TEAE Injury, poisoning and procedural complications, participants: 0 n (%)
  TEAE Medical device site reaction, participants: 0 n (%)
  TEAE Metabolism and nutrition disorders, participants: 0 n (%)
  TEAE Musculoskeletal and connective tissue disorders, participants: 0 n (%)
  TEAE Nasopharyngitis, participants: 0 n (%)
  TEAE Nervous system disorders, participants: 0 n (%)
  TEAE Pain, participants: 0 n (%)
  TEAE Rash, no. of AEs: 1
  TEAE Rash, participants: 1 (16.7%) n (%)
  TEAE Respiratory, thoracic and mediastinal disorders, participants: 0 n (%)
  TEAE Skin and subcutaneous tissue disorders, no. of AEs: 1
  TEAE Skin and subcutaneous tissue disorders, participants: 1 (16.7%) n (%)
  TEAE Wound, participants: 0 n (%)
Part A, all GB1211 doses
  Number of TEAEs, GB1211 group: 11
  Participants with TEAEs, GB1211 group: 8
[1]
  Safety concerns: No safety concerns were identified
  Tolerability: well tolerated
[2]
  Number of TEAEs: 4
  Participants discontinued due to TEAEs: 0 n (%)
  Participants with SAEs: 0 n (%)
  Participants with TEAEs: 3 (50.0) n (%) and 3 (50.0%) n (%)
  Severity (all TEAEs): Mild: 3 (50.0) n (%)
  Severity (all TEAEs): Moderate: 0 n (%)
  Severity (all TEAEs): Severe: 0 n (%)
  Severity (all TEAEs): Total: 3 (50.0) n (%)
  Severity (possibly related to study treatment): Mild: 1 (16.7) n (%)
  Severity (possibly related to study treatment): Moderate: 0 n (%)
  Severity (possibly related to study treatment): Severe: 0 n (%)
  Severity (possibly related to study treatment): Total: 1 (16.7) n (%)
[3]
  Number of TEAEs: 1
  Participants discontinued due to TEAEs: 0 n (%)
  Participants with SAEs: 0 n (%)
  Participants with TEAEs: 1 (16.7) n (%) and 1 (16.7%) n (%)
  Severity (all TEAEs): Mild: 1 (16.7) n (%)
  Severity (all TEAEs): Moderate: 0 n (%)
  Severity (all TEAEs): Severe: 0 n (%)
  Severity (all TEAEs): Total: 1 (16.7) n (%)
  Severity (possibly related to study treatment): Mild: 0 n (%)
  Severity (possibly related to study treatment): Moderate: 0 n (%)
  Severity (possibly related to study treatment): Severe: 0 n (%)
  Severity (possibly related to study treatment): Total: 0 n (%)
[4]
  Number of TEAEs: 1
  Participants discontinued due to TEAEs: 0 n (%)
  Participants with SAEs: 0 n (%)
  Participants with TEAEs: 1 (16.7) n (%) and 1 (16.7%) n (%)
  Severity (all TEAEs): Mild: 1 (16.7) n (%)
  Severity (all TEAEs): Moderate: 0 n (%)
  Severity (all TEAEs): Severe: 0 n (%)
  Severity (all TEAEs): Total: 1 (16.7) n (%)
  Severity (possibly related to study treatment): Mild: 0 n (%)
  Severity (possibly related to study treatment): Moderate: 0 n (%)
  Severity (possibly related to study treatment): Severe: 0 n (%)
  Severity (possibly related to study treatment): Total: 0 n (%)
[5]
  Number of TEAEs: 1
  Participants discontinued due to TEAEs: 0 n (%)
  Participants with SAEs: 0 n (%)
  Participants with TEAEs: 1 (16.7) n (%) and 1 (16.7%) n (%)
  Severity (all TEAEs): Mild: 0 n (%)
  Severity (all TEAEs): Moderate: 1 n (%) and 1 (16.7) n (%)
  Severity (all TEAEs): Severe: 0 n (%)
  Severity (all TEAEs): Total: 1 (16.7) n (%)
  Severity (possibly related to study treatment): Mild: 0 n (%)
  Severity (possibly related to study treatment): Moderate: 0 n (%)
  Severity (possibly related to study treatment): Severe: 0 n (%)
  Severity (possibly related to study treatment): Total: 0 n (%)
[6]
  Number of TEAEs: 1
  Participants discontinued due to TEAEs: 0 n (%)
  Participants with SAEs: 0 n (%)
  Participants with TEAEs: 1 (16.7) n (%) and 1 (16.7%) n (%)
  Severity (all TEAEs): Mild: 1 (16.7) n (%)
  Severity (all TEAEs): Moderate: 0 n (%)
  Severity (all TEAEs): Severe: 0 n (%)
  Severity (all TEAEs): Total: 1 (16.7) n (%)
  Severity (possibly related to study treatment): Mild: 0 n (%)
  Severity (possibly related to study treatment): Moderate: 0 n (%)
  Severity (possibly related to study treatment): Severe: 0 n (%)
  Severity (possibly related to study treatment): Total: 0 n (%)
[7]
  Number of TEAEs: 2
  Participants discontinued due to TEAEs: 0 n (%)
  Participants with SAEs: 0 n (%)
  Participants with TEAEs: 1 (16.7) n (%) and 1 (16.7%) n (%)
  Severity (all TEAEs): Mild: 1 (16.7) n (%)
  Severity (all TEAEs): Moderate: 0 n (%)
  Severity (all TEAEs): Severe: 0 n (%)
  Severity (all TEAEs): Total: 1 (16.7) n (%)
  Severity (possibly related to study treatment): Mild: 1 (16.7) n (%)
  Severity (possibly related to study treatment): Moderate: 0 n (%)
  Severity (possibly related to study treatment): Severe: 0 n (%)
  Severity (possibly related to study treatment): Total: 1 (16.7) n (%)
[8]
  Number of TEAEs: 0
  Participants discontinued due to TEAEs: 0 n (%)
  Participants with SAEs: 0 n (%)
  Participants with TEAEs: 0 n (%)
  Severity (all TEAEs): Mild: 0 n (%)
  Severity (all TEAEs): Moderate: 0 n (%)
  Severity (all TEAEs): Severe: 0 n (%)
  Severity (all TEAEs): Total: 0 n (%)
  Severity (possibly related to study treatment): Mild: 0 n (%)
  Severity (possibly related to study treatment): Moderate: 0 n (%)
  Severity (possibly related to study treatment): Severe: 0 n (%)
  Severity (possibly related to study treatment): Total: 0 n (%)
[9]
  Number of TEAEs: 1
  Participants discontinued due to TEAEs: 0 n (%)
  Participants with SAEs: 0 n (%)
  Participants with TEAEs: 1 (16.7) n (%) and 1 (16.7%) n (%)
  Severity (all TEAEs): Mild: 1 (16.7) n (%)
  Severity (all TEAEs): Moderate: 0 n (%)
  Severity (all TEAEs): Severe: 0 n (%)
  Severity (all TEAEs): Total: 1 (16.7) n (%)
  Severity (possibly related to study treatment): Mild: 1 (16.7) n (%)
  Severity (possibly related to study treatment): Moderate: 0 n (%)
  Severity (possibly related to study treatment): Severe: 0 n (%)
  Severity (possibly related to study treatment): Total: 1 (16.7) n (%)
Single or multiple GB1211 doses
  Clinical laboratory evaluation, vital signs, ECG or physical examination: no treatment- or dose-related trend; also recorded: no clinically significant finding
[10]
  Serious AEs or severe AEs: no severe TEAEs or serious AEs reported
  Study discontinuations due to AEs: no study discontinuations due to AEs
